Where two headings read alike, the source gives them in different places.
Tests used:
[1] = test system: neural progenitor cells (NPCs); test: Neurogenesis from NPCs co-cultured with microglia pre-activated by aggregated Aβ and cytokines; format: cell-based, mouse; conditions: 10 days; Aβ 5 μM 48 h, cytokines 10 ng/ml
Description: (xx) Reagents. Recombinant mouse IFN-γ and IL-4 (both containing endotoxin at a concentration below 0.1 ng/μg cytokine) were obtained from R&D Systems (Minneapolis, Minn.). β-amyloid peptides [amyloid protein fragment 1-40 and 1-42 (Aβ1-40/1-42)] were purchased from Sigma-Aldrich, St. Louis, Mo. The Aβ peptides were dissolved in endotoxin-free water, and Aβ aggregates were formed by incubation of Aβ, as described (Ishii et al., 2000). (xxv) Neural progenitor cell culture. Coronal sections (2 mm thick) of tissue containing the subventricular zone of the lateral ventricle were obtained from the brains of adult C57B1/6J mice. […] After centrifugation at 110×g for 15 min at room temperature, the tissue was mechanically dissociated by pipette trituration. Cells obtained from single-cell suspensions were plated (3500 cells/cm^2) in 75-cm^2 Falcon tissue-culture flasks (BD Biosciences, San Diego, Calif.), in NPC-culturing medium [Dulbecco's modified Eagles's medium (DMEM)/F12 medium (Gibco/Invitrogen, Carlsbad, Calif.) containing 2 mM L-glutamine, 0.6% glucose, 9.6 μg/ml putrescine, 6.3 ng/ml progesterone, 5.2 ng/ml sodium selenite, 0.02 mg/ml insulin, 0.1 mg/ml transferrin, 2 μg/ml heparin (all from Sigma-Aldrich, Rehovot, Israel), fibroblast growth factor-2 (human recombinant, 20 ng/ml), and epidermal growth factor (human recombinant, 20 ng/ml; both from Peprotech, Rocky Hill, N.J.)]. Spheres were passaged every 4-6 days and replated as single cells. Green fluorescent protein (GFP)-expressing NPCs were obtained as previously described (Pluchino et al., 2003). (xxvi) Primary microglial culture. Brains from neonatal (P0-P1) C57B1/6J mice were stripped of their meninges and minced with scissors under a dissecting microscope (Zeiss, Stemi DV4, Germany) in Leibovitz-15 medium (Biological Industries, Kibbutz Beit Ha-Emek, Israel). […] The cell suspension was washed in culture medium for glial cells [DMEM supplemented with 10% fetal calf serum (FCS; Sigma-Aldrich, Rehovot), L-glutamine (1 mM), sodium pyruvate (1 mM), penicillin (100 U/ml), and streptomycin ([…])] and cultured at 37° C./5% CO2 in 75-cm^2 Falcon tissue-culture flasks (BD Biosciences) coated with poly-D-lysine (PDL) (10 mg/ml; Sigma-Aldrich, Rehovot) in borate buffer (2.37 g borax and 1.55 g boric acid dissolved in 500 ml sterile water, pH 8.4) for 1 h, then rinsed thoroughly with sterile, glass-distilled water. Half of the medium was changed after 6 h in culture and every 2nd day thereafter, starting on day 2, for a total culture time of 10-14 days. […]

[2] = test system: spinal cord injury (SCI) in C57B1/6J mice; format: in vivo, mouse
[3] = test system: neural progenitor cells (NPCs); test: Oligodendrocyte differentiation (NG2, RIP, GalC) of NPCs co-cultured with activated microglia; format: cell-based, mouse; conditions: agent added to NPCs co-cultured with MG(IFN-γ)
Description: (iii) Neural progenitor cell (NPC) culture. Coronal sections (2 mm thick) of tissue containing the subventricular zone of the lateral ventricle were obtained from the brains of adult C57B16/J mice. The tissue was minced and then incubated for digestion at 37° C., 5% CO2 for 45 min in Earle's balanced salt solution containing 0.94 mg/ml papain (Worthington, Lakewood, N.J.) and 0.18 mg/ml of L-cysteine and EDTA. After centrifugation at 110×g for 15 min at room temperature, the tissue was mechanically dissociated by pipette trituration. Cells obtained from single-cell suspensions were plated (3500 cells/cm^2) in 75-cm^2 Falcon tissue-culture flasks (BD Biosciences, Franklin Lakes, N.J.), in NPC-culturing medium [Dulbecco's modified Eagles's medium (DMEM)/F12 medium (Gibco/Invitrogen, Carlsbad, Calif.) containing 2 mM L-glutamine, 0.6% glucose, 9.6 μg/ml putrescine, 6.3 ng/ml progesterone, 5.2 ng/ml sodium selenite, 0.02 mg/ml insulin, 0.1 mg/ml transferrin, 2 μg/ml heparin (all from Sigma-Aldrich, Rehovot, Israel), fibroblast growth factor-2 (human recombinant, 20 ng/ml), and epidermal growth factor (human recombinant, 20 ng/ml; both from Peprotech, Rocky Hill, N.J.)]. Spheres were passaged every 4-6 days and replated as single cells. Green fluorescent protein (GFP)-expressing neural progenitor cells (NPCs) were obtained as previously described (Pluchino et al., 2003). […]

In the case of “Aβ(1-40): aggregated amyloid protein fragment 1-40”, the “neurogenesis (GFP+/βIIIT+ cells) from NPCs co-cultured with treated microglia” value [1] is reported as “blocked neurogenesis and decreased the number of NPCs”.

“Aβ(1-42): aggregated amyloid protein fragment 1-42” was tested, and the “neurogenesis (GFP+/βIIIT+ cells) from NPCs co-cultured with treated microglia” value [1] was “negative effect was not exhibited”.

“MEVGWYRSPFDRVVHLYRNGK [45D peptide, altered MOG 35-55 peptide, serine to aspartic acid substitution]” was tested, and the “Basso motor score (BMS), mean±SEM” value ([2]; immunization in CFA 2.5% M. tuberculosis, without aNPC transplantation (FIG. 7C)) was 2.57±0.24 and the “Basso motor score (BMS), mean±SEM” value ([2]; vaccination in CFA 2.5% M. tuberculosis 1 week before SCI, aNPCs i.c.v. 1 week after SCI (FIG. 7C)) was 4.11±0.27.

With “MEVGWYRSPFSRVVHLYRNGK [MOG/CFA, MOG peptide 35-55 emulsified in CFA containing 2.5% Mycobacterium tuberculosis]” the “Basso motor score (BMS)” value ([2]; MOG 35-55 in CFA 2.5% M. tuberculosis one week prior to SCI, no aNPCs (FIGS. 7G, 7H)) was 0.35±0.2.

In the case of “MEVGWYRSPFSRVVHLYRNGK [MOG/CFA/PBS, pMOG 35-55 emulsified in CFA, PBS i.c.v. instead of cells]”, the “Basso motor score (BMS), mean±SEM” value ([2]; immunization immediately after SCI, CFA containing 0.5% Mycobacterium tuberculosis, i.c.v. injection 1 week later (FIG. 7A)) is reported as 2.71±0.5.

B1: rTNF-α: recombinant mouse TNF-α (protein)
chain: LRSSSQNSSDKPVAHVVANHQVEEQLEWLSQRANALLANGMDLKDNQLVVPADGLYLVYSQVLFKGQGCPDYVLLTHTVSRFAISYQEKVNLLSAVKSPCPKDTPEGAELKPWYEPIYLGGVFQLEKGDQLSAEVNLPKYLDFAESGQVYFGVIAL
In the case of B1, the “oligodendrogenesis induced by MG(IFN-γ)” value [3] is reported as “negative effect”.

B2: OVA/CFA/PBS: nonself protein ovalbumin emulsified in CFA, PBS i.c.v. (protein, UniProt P01012 2-386, looked up)
Ovalbumin: GSIGAASMEFCFDVFKELKVHHANENIFYCPIAIMSALAMVYLGAKDSTRTQINKVVRFDKLPGFGDSIEAQCGTSVNVHSSLRDILNQITKPNDVYSFSLASRLYAEERYPILPEYLQCVKELYRGGLEPINFQTAADQARELINSWVESQTNGIIRNVLQPSSVDSQTAMVLVNAIVFKGLWEKAFKDEDTQAMPFRVTEQESKPVQMMYQIGLFRVASMASEKMKILELPFASGTMSMLVLLPDEVSGLEQLESIINFEKLTEWTSSNVMEERKIKVYLPRMKMEEKYNLTSVLMAMGITDVFSSSANLSGISSAESLKISQAVHAAHAEINEAGREVVGSAEAGVDAASVSEEFRADHPFLFCIKHIATNAVLFFGRCVSP
modifications: emulsified in CFA
For B2, the “Basso motor score (BMS)” value ([2]; OVA in CFA 2.5% M. tuberculosis, i.c.v. injection 1 week later (FIG. 7F)) was 2.2±0.68.
